Measurements taken from patent US20210238172.
Like-named read-outs stand apart in the source and are kept apart here.

Conditions: amide bond, HATU/DIEA, NMP, 2 steps

Substance	ring closure, yield after HPLC (21-membered ring, 92.4 mM, 80.0 °C) [%]	ring closure, yield after HPLC (22-membered ring, 68.9 mM, 140.0 °C) [%]
8-Ethyl-10,18-dimethyl-7,20-dioxo-6,7,8,11,14,15,20,21,28,29,30,31-dodecahydrobenzo[4,5]imidazo[1,2-a]benzo[4,5]imidazo[2,1-p]dipyrazolo[5,1-e:4′,3′-l][1,3,6,15,17]pentaazacyclohenicosine-3,24-dicarboxamide	1.7	–
8-ethyl-10,18,30-trimethyl-7,20-dioxo-7,8,11,12,13,14,15,20,21,28,29,30,31,32-tetradecahydro-benzo[4,5]imidazo[2,1-b]benzo[4,5]imidazo[1,2-i]dipyrazolo[5,1-m:4′,3′-t][1,3,6,9,11,14]hexaazacyclodocosine-3,24-dicarboxamide	–	4.56
